The target of the test is human 5-HT2C receptor (Homo sapiens, UniProt P28335, I156V/I160V/N158S). The test can be described thus: cell-based.
Chain of human 5-HT2C receptor (P28335 33-458 I156V/N158S/I160V limits assumed): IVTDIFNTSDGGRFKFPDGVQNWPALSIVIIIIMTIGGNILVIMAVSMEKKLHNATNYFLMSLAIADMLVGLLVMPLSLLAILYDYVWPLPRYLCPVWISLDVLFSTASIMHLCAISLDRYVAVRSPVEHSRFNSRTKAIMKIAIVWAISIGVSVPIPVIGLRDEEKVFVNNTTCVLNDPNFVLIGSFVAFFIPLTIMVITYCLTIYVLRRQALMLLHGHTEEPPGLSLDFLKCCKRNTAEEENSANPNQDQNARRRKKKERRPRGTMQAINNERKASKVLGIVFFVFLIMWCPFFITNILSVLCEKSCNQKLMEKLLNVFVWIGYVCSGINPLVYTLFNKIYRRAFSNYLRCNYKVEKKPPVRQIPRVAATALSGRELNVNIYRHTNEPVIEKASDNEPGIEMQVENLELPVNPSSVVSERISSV
`O=C(C1CN(c2c3c(nc4ccnn24)CCNCC3)C1)N1CCc2c1ccc(F)c2F` [Example 31.155]: the response was half-maximal at 52 nM (EC50).

Turning to `CN1CCc2nc3ccnn3c(N3CC(C(=O)N4CCN(CC5CC5)CC4)C3)c2CC1` [Example 36.18], a half-maximal response (EC50) required 77 nM. The figure for `O=C(C1CN(c2c3c(nc4ccnn24)CCNCC3)C1)N1CCC(F)(F)CC1` [Example 31.203] is 67 nM; for `CC(C)(C)NC1CCN(C(=O)C2CN(c3c4c(nc5ccnn35)CCNCC4)C2)CC1` [Example 37.22] it is 2 nM. In the case of `CN1CCc2nc3ccnn3c(N3CC(C(=O)N4CCN(C5CC5)CC4)C3)c2CC1` [Example 36.24] it was 228 nM; in that of `Cc1ccc(OCC2CN(c3c4c(nc5ccnn35)CCNCC4)C2)c(F)c1F` [Example 15.10], 20 nM; in that of `CN(Cc1ccccc1)C(=O)C1CN(c2c3c(nc4ccnn24)CCNCC3)C1` [Example 31.19], 50 nM.

`CC(C)CCN(C)C(=O)C1CN(c2c3c(nc4ccnn24)CCNCC3)C1` [Example 31.74]: the EC50 (in general, the midpoint of the concentration-response curve) was found to be 175 nM. Consider `O=C(C1CN(c2c3c(nc4ccnn24)CCNCC3)C1)N1CCC(Oc2ccccc2Cl)CC1` [Example 31.145], for which the EC50 is 94 nM. The figure for `CN(Cc1ccc(Cl)cc1)C(=O)C1CN(c2c3c(nc4c(Br)cnn24)CCNCC3)C1` [Example 31.141] is 87 nM; for `CN1CCc2nc3ccnn3c(N3CC(C(=O)N4CCC(F)(F)C4)C3)c2CC1` [Example 36.30] it is 117 nM. Regarding `CCc1cnn2c(N3CCC3)c3c(nc12)CCNCC3` [Example 25.2], the EC50 came to 12 nM. In the case of `O=C(O)C1CN(c2c3c(nc4ccnn24)CCNCC3)C1` [Example 1.14] it was 1340 nM; in that of `O=C(C1CN(c2c3c(nc4c(Br)cnn24)CCNCC3)C1)N1CCC2(CCCCC2)CC1` [Example 31.132], 254 nM; in that of `CCN1CCN(C(=O)C2CN(c3c4c(nc5ccnn35)CCNCC4)C2)CC1=O` [Example 37.65], 5 nM.

`c1cncc(OC2CN(c3c4c(nc5ccnn35)CCNCC4)C2)c1` [Example 35.42] showed an EC50 of 212 nM. `Clc1ccccc1OCC1CN(c2c3c(nc4ccnn24)CCNCC3)C1` [Example 15.6] had an EC50 of 5 nM. Regarding `CC1(C)CC2CC(C)(CN2C(=O)C2CN(c3c4c(nc5ccnn35)CCNCC4)C2)C1` (centres unmarked) [Example 31.25], the EC50 worked out at 1510 nM.

Consider `COc1ccc(OCC2CN(c3c4c(nc5ccnn35)CCNCC4)C2)c(Cl)c1` [Example 15.16], for which the EC50 was 3 nM. The figure for `CN(Cc1cccc(F)c1)C(=O)C1CN(c2c3c(nc4ccnn24)CCNCC3)C1` [Example 31.125] is 38 nM. The figure for `CC(C)CC(=O)N1CCN(C(=O)C2CN(c3c4c(nc5ccnn35)CCNCC4)C2)CC1` [Example 37.57] is 27 nM; for `CN1CCC2(CCN(c3c4c(nc5ccnn35)CCNCC4)CC2)C1=O` [Example 1.66] it is 1660 nM. In the case of `CC(C)OCCNC(=O)C1CN(c2c3c(nc4ccnn24)CCNCC3)C1` [Example 37.96] it was 111 nM. As for `O=C(C1CN(c2c3c(nc4ccnn24)CCNCC3)C1)N1CCC2(CCCc3ccccc32)C1` (centres unmarked) [Example 31.222], the EC50 came to 96 nM.

With `O=C(NCC1CCCCC1)C1CN(c2c3c(nc4ccnn24)CCNCC3)C1` [Example 31.225], the response was half-maximal at 111 nM (EC50). In the case of `C[C@@H]1CN(C(=O)C2CN(c3c4c(nc5ccnn35)CCNCC4)C2)C[C@H](C)O1` [Example 31.42] it was 37 nM; in that of `O=C(NC1CCCC(C(F)(F)F)C1)C1CN(c2c3c(nc4ccnn24)CCNCC3)C1` (centres unmarked) [Example 37.59], 47 nM; in that of `O=C(C1CN(c2c3c(nc4ccnn24)CCNCC3)C1)N1CCC(Oc2ccccc2)CC1` [Example 31.154], 40 nM. The figure for `Fc1cccc(Cl)c1OCC1CN(c2c3c(nc4ccnn24)CCNCC3)C1` [Example 15.14] is 2 nM; for `Cc1cccc(C2CCN(C(=O)C3CN(c4c5c(nc6ccnn46)CCNCC5)C3)CC2)c1` [Example 31.167] it is 101 nM; for `CCNC(=O)C1CN(c2c3c(nc4ccnn24)CCNCC3)C1` [Example 37.95] it is 742 nM. The figure for `c1nn2c(N3CCC3)c3c(nc2c1C1CC1)CCNCC3` [Example 29, 10-Azetidin-1-yl-3-cyclopropyl-6,7,8,9-tetrahydro-5H-1,4,7,10a-tetraaza-cyclohepta[f]indene] is 81 nM. Consider `O=C(Nc1ccccc1)C1CN(c2c3c(nc4ccnn24)CCNCC3)C1` [Example 31.16], for which it took 2390 nM to reach a half-maximal effect (EC50).

On to `C[C@H](c1ccccc1)N(C)C(=O)C1CN(c2c3c(nc4ccnn24)CCNCC3)C1` [Example 31.90], for which it took 465 nM to reach a half-maximal effect (EC50). In the case of `O=C(C1CN(c2c3c(nc4ccnn24)CCNCC3)C1)N1CC[C@H]2CCCC[C@@H]2C1` [Example 31.130] it was 57 nM; in that of `O=C(NCC1CCC1)C1CN(c2c3c(nc4ccnn24)CCNCC3)C1` [Example 37.50], 51 nM.

Consider `CC(C)COC1CN(c2c3c(nc4ccnn24)CCNCC3)C1` [Example 20.1], for which a half-maximal response (EC50) required 359 nM.

Regarding `COc1cccc(N(C)C(=O)C2CN(c3c4c(nc5ccnn35)CCNCC4)C2)c1` [Example 31.55], the EC50 is 600 nM. In turn, `COc1ccc(CC2CN(c3c4c(nc5ccnn35)CCNCC4)C2)cc1` [Example 18.1] had a half-maximal effective concentration (EC50) of 119 nM.

Molecule `CCc1ccc(CN(C)C(=O)C2CN(c3c4c(nc5ccnn35)CCNCC4)C2)cc1` [Example 31.170] registered an EC50 of 64 nM. In the case of `CN1CCc2nc3ccnn3c(N3CC(C(=O)N4CCN(C(=O)C5CC5)CC4)C3)c2CC1` [Example 36.43] it was 264 nM. In the case of `CN(Cc1cccc(Cl)c1Cl)C(=O)C1CN(c2c3c(nc4ccnn24)CCNCC3)C1` [Example 31.168] it was 107 nM; in that of `COc1cc(C)cc(OCC2CN(c3c4c(nc5ccnn35)CCNCC4)C2)c1` [Example 15.22], 141 nM; in that of `O=C(C1CN(c2c3c(nc4ccnn24)CCNCC3)C1)N1CCc2c(F)cccc2C1` [Example 31.204], 33 nM. The figure for `CC#CCN(CC(C)C)C(=O)C1CN(c2c3c(nc4ccnn24)CCNCC3)C1` [Example 31.104] is 215 nM. Turning to `CC(C)C1(O)CCN(C(=O)C2CN(c3c4c(nc5ccnn35)CCN(C)CC4)C2)CC1` [Example 36.26], the EC50 worked out at 191 nM. In the case of `CN(C)C(=O)[C@H]1CCN(c2c3c(nc4ccnn24)CCNCC3)C1` [Example 1.63] it was 2680 nM; in that of `CN(CCc1cccc(C(F)(F)F)c1)C(=O)C1CN(c2c3c(nc4ccnn24)CCNCC3)C1` [Example 31.89], 133 nM. In turn, `Fc1ccccc1OCC1CN(c2c3c(nc4ccnn24)CCNCC3)C1` [Example 15.2] returned an EC50 of 3 nM.

`CN(CCc1cccc(Cl)c1)C(=O)C1CN(c2c3c(nc4ccnn24)CCNCC3)C1` [Example 31.59] yielded an EC50 of 147 nM. The figure for `CCC(CC)CNC(=O)C1CN(c2c3c(nc4ccnn24)CCNCC3)C1` [Example 37.88] is 36 nM; for `Brc1cnn2c(N3CCC(c4ccccc4)C3)c3c(nc12)CCNCC3` (centres unmarked) [Example 2.2] it is 56 nM. In the case of `Cc1ccc(OCC2CN(c3c4c(nc5ccnn35)CCNCC4)C2)cc1` [Example 15.18] it was 140 nM; in that of `O=C(C1CN(c2c3c(nc4ccnn24)CCNCC3)C1)N1CCCC(Cc2ccc(F)cc2)C1` (centres unmarked) [Example 31.101], 62 nM. The figure for `COc1ccc(OC2CN(c3c4c(nc5ccnn35)CCNCC4)C2)cc1OC` [Example 35.49] is 137 nM. `Cc1ccc(OC2CN(c3c4c(nc5ccnn35)CCNCC4)C2)cc1` [Example 35.45] yielded an EC50 of 129 nM.

Consider `O=C(C1CN(c2c3c(nc4ccnn24)CCNCC3)C1)N1CC2CC(c3ccccc3)(C2)C1` [Example 31.232], for which a half-maximal effect (EC50) was put at 95 nM. The figure for `FC(F)(F)c1ccc(OC2CN(c3c4c(nc5ccnn35)CCNCC4)C2)nc1` [Example 20.8] is 939 nM. In the case of `Cc1cccc2c1CCN2C(=O)C1CN(c2c3c(nc4ccnn24)CCNCC3)C1` [Example 31.175] it was 64 nM; in that of `CC(C)c1ccc(OC2CN(c3c4c(nc5ccnn35)CCNCC4)C2)cc1` [Example 35.44], 256 nM. The molecule `O=C(C1CN(c2c3c(nc4ccnn24)CCNCC3)C1)N1CCCC(c2ccccc2)CC1` (centres unmarked) [Example 31.152] registered an EC50 of 77 nM. `CC(C)CN1CCN(C(=O)C2CN(c3c4c(nc5ccnn35)CCN(C)CC4)C2)CC1` [Example 36.17]: the EC50 came to 88 nM. In the case of `Cc1cnn2c(N3CC(C(=O)N4c5ccccc5CC4C)C3)c3c(nc12)CCNCC3` (centres unmarked) [Example 31.241] it was 84 nM. The figure for `COc1cc(Br)ccc1OC1CN(c2c3c(nc4ccnn24)CCNCC3)C1` [Example 35.17] is 88 nM. In the case of `CC(C)NC1CCN(C(=O)C2CN(c3c4c(nc5ccnn35)CCNCC4)C2)CC1` [Example 37.21] it was 2 nM; in that of `CC1CCCN(C(=O)C2CN(c3c4c(nc5ccnn35)CCNCC4)C2)C1` (centres unmarked) [Example 31.1], 89 nM; in that of `O=C(C1CN(c2c3c(nc4ccnn24)CCNCC3)C1)N1CCc2sccc2C1` [Example 31.36], 57 nM. Consider `Fc1cccc(OCC2CN(c3c4c(nc5ccnn35)CCNCC4)C2)c1` [Example 15.19], for which the EC50 amounted to 21 nM. The figure for `c1ccc(OCC2CN(c3c4c(nc5ccnn35)CCNCC4)C2)cc1` [Example 15.17] is 31 nM; for `Fc1ccc(OC2CN(c3c4c(nc5ccnn35)CCNCC4)C2)cc1F` [Example 35.55] it is 115 nM. With `O=C(C1CN(c2c3c(nc4ccnn24)CCNCC3)C1)N1CC[C@H](F)C1` [Example 31.202], it took 162 nM to reach a half-maximal effect (EC50). `CN1CCc2nc3ccnn3c(N3CC(C(=O)N4CCN(C(=O)C5CCCC5)CC4)C3)c2CC1` [Example 36.58] returned an EC50 of 447 nM. Consider `c1ccc(C2OCCN(c3c4c(nc5ccnn35)CCNCC4)C2c2ccccc2)cc1` (centres unmarked) [Example 1.40], for which the response was half-maximal at 1290 nM (EC50). The figure for `O=C(C1CN(c2c3c(nc4ccnn24)CCNCC3)C1)N1CCN(Cc2ccc(F)cc2)CC1` [Example 37.23] is 6 nM.
